Reference: publication PMC12394552, “Multi-biological activity evaluation of Sn(П), Zn(П) and Fe(П) complexes based on thiocarbohydrazide schiff bases: synthesis, spectroscopic investigations and fluorescence studies” (Scientific Reports, 2025)
≈ marks a conversion by molar mass, not a printed value.

Assays:
[1] = test system: Candida albicans ATCC10231; assay: MIC determination, broth microdilution, absorbance 530 nm; format: cell-based; conditions: ATCC10231, 24 h, read-out: C. albicans MIC value at 50% inhibition
Method: (§1) The compounds were tested against Gram-positive bacteria (Staphylococcus aureus ATCC 6538), Gram-negative bacteria (Escherichia coli ATCC 8739) and yeast (Candida albicansATCC10231). […] For bacterial strains, the EUCAST (2025) method was adapted. A few colonies of each bacterial culture previously grown on Mueller-Hinton agar for 24–48 h were suspended in normal saline and adjusted to 0.5 McFarland (1.5 × 10^8 CFU/mL). A 1/10 dilution was prepared in Mueller-Hinton broth (MHB) for the inoculation. In the wells of a 96-well flat-bottom microtiter plate, double serial dilutions of each compound were prepared in MHB. Each well was inoculated with the bacteria to achieve ca. 5 × 10^5 CFU/mL, and the plates were incubated at 37 °C overnight. Positive control (bacteria in culture medium only) and negative control (culture medium) were prepared. Each compound was tested in duplicate. After incubation, the plates were inspected visually for growth inhibition. To test the antimicrobial activity of DMSO, double serial dilutions of DMSO in broth medium were prepared and processed as the samples, but without the addition of the compounds. The antibacterial drug ciprofloxacin was used as a reference for comparison.
(§2) For Candida albicans, the same procedure applied to bacteria was used, except after inoculation, the plates were incubated at 35 °C for 24 h, and after incubation, the absorbance was measured at 530 nm using a plate reader. […] The absorbance of the wells was corrected by subtracting the absorbance of the blank. […] The antifungal drug fluconazole was used as a reference for comparison.

[2] = test system: Staphylococcus aureus ATCC 6538; assay: MIC determination, broth microdilution (EUCAST adapted); format: cell-based; conditions: ATCC6538, read-out: S. aureus MIC value
Method: as §1, §2

[3] = test system: Escherichia coli ATCC 8739; assay: as above; format: cell-based; conditions: ATCC8739, read-out: E. coli MIC value
Method: as §1, §2

[4] = test system: Periodontal ligament fibroblasts (PDL); assay: SRB selective cytotoxicity in normal fibroblasts; format: cell-based; conditions: Fibroblast
Method: (§3) All malignancy cell lines were cultured in high glucose DMEM (Bio Whittaker, Verviers, Belgium) containing 10% FBS, 4-(2-hydroxyethyl)-1-piperazineethanesulfonic acid (HEPES) Buffer (10 mM), L-glutamine (2 mM), gentamicin (50 µg/mL), penicillin (100 U/mL), and streptomycin sulfate ([…]) from Sigma (St. Luis, MO, USA) whereas Sulforhodamine B was from Santa Cruz Biotechnology (Inc. Texas, USA). Surviving cancer cell lines provide numerous advantages; they provide a pure and continuous supply of cells, thus overcoming any ethical barriers concerning human tissue usage, and are cost-effective. For cytotoxicity screening, adherent monolayers of all procured malignancies’ cell lines were examined. Periodontal ligament fibroblasts (PDL) were used to determine selective cytotoxicity.

U87 glioblastoma = assay: SRB antiproliferative assay; format: cell-based; conditions: Homo sapiens, 72 h, read-out: Cytotoxicity (as of %Control) IC50 value, U87 Gliobalstoma
Method: as §3

[5] = test system: HCT116 colorectal cancer cell line; assay: SRB antiproliferative assay; format: cell-based; conditions: Homo sapiens, HCT-116, 72 h; read-out: Cytotoxicity (as of %control) IC50 value, HCT116
Method: as §3

A375 skin melanoma = assay: SRB antiproliferative assay; format: cell-based; conditions: Homo sapiens, A-375, 72 h; read-out: Cytotoxicity (as of %Control) IC50 value, A375 skin melanoma
Method: as §3

[6] = test system: HT29 colorectal cancer cell line; assay: SRB antiproliferative assay; format: cell-based; conditions: Homo sapiens, HT-29, 72 h; read-out: Cytotoxicity (as of %control) IC50 value, HT29
Method: as §3

[7] = test system: CACO2 colorectal cancer cell line; assay: SRB antiproliferative assay; format: cell-based; conditions: Homo sapiens, Caco-2, 72 h; read-out: Cytotoxicity (as of %control) IC50 value, CACO2
Method: as §3

[8] = test system: SW620 colorectal cancer cell line; assay: SRB antiproliferative assay; format: cell-based; conditions: Homo sapiens, SW-620, 72 h, read-out: Cytotoxicity (as of %control) IC50 value, SW620
Method: as §3

RAW 264.7 macrophages = assay: SRB cytotoxicity on RAW 264.7 viability; format: cell-based; conditions: Mus musculus, RAW264.7, read-out: RAW 264.7 viability IC50 value
Method: as §3
RAW 264.7 mouse macrophage cell line (ATCC® TIB-71) were cultured in high glucose DMEM supplemented with 10% (FBS), penicillin (100 U/mL), streptomycin (100 µg/mL), and L-glutamate (100 µg/mL) in a 37 °C humidified atmosphere with 95% air and 5% CO2. Confluent macrophages (2 × 10^5/well) were incubated with inflammation-priming lipopolysaccharide (LPS; Sigma, St. Luis, MO, USA) with either indomethacin as the reference agent[39] or treatment compounds at different concentrations (1.563-200 µM). Griess reagent was mixed with aliquots of cell culture media and incubated at R.T. for 10 min. Absorbance at 550 nm was determined using a microplate reader (Spectro Scan 80D UV-VIS spectrophotometer (Sedico Ltd., Nicosia, Cyprus). The nitrite concentration was determined by comparison with a sodium nitrite standard curve. SRB cytotoxicity protocol was performed for evaluation of the effect of the studied test compounds on RAW 264.7 viability.

[9] = test system: MDA-MB-231 invasive mammary malignancy; assay: SRB antiproliferative assay; format: cell-based, human; conditions: Homo sapiens, MDA-MB-231, 72 h, read-out: Cytotoxicity (as of %control) IC50 value, MDA-MB-231 invasive mammary malignancy
Method: as §3

MCF7 mammary malignancy = assay: SRB antiproliferative assay; format: cell-based, human; conditions: Homo sapiens, MCF7, 72 h; read-out: Cytotoxicity (as of %control) IC50 value, MCF7 mammary malignancy
Method: as §3

A549 lung malignancy = assay: SRB antiproliferative assay; format: cell-based, human; conditions: Homo sapiens, A549, 72 h; read-out: Cytotoxicity (as of %Control) IC50 value, A549 lung malignancy
Method: as §3

[10] = test system: PANC1 pancreatic cell line; assay: SRB antiproliferative assay; format: cell-based, human; conditions: Homo sapiens, PANC-1, 72 h; read-out: Cytotoxicity (as of %control) IC50 value, PANC1
Method: as §3

[11] = test system: BT-549 invasive mammary malignancy; assay: SRB antiproliferative assay; format: cell-based, human; conditions: Homo sapiens, BT-549, 72 h; read-out: Cytotoxicity (as of %control) IC50 value, BT-549 invasive mammary malignancy
Method: as §3

T47D mammary malignancy = assay: SRB antiproliferative assay; format: cell-based, human; conditions: Homo sapiens, T47D, 72 h; read-out: Cytotoxicity (as of %control) IC50 value, T47D mammary malignancy
Method: as §3

[12] = test system: MDA-MB-453 invasive mammary malignancy; assay: SRB antiproliferative assay; format: cell-based, human; conditions: Homo sapiens, MDA-MB-453, 72 h; read-out: Cytotoxicity (as of %control) IC50 value, MDA-MB-453 invasive mammary malignancy
Method: as §3

[13] = test system: SW480 colorectal cancer cell line; assay: SRB antiproliferative assay; format: cell-based, human; conditions: Homo sapiens, SW480, 72 h; read-out: Cytotoxicity (as of %control) IC50 value, SW480
Method: as §3

Hela cervix malignancy = assay: SRB antiproliferative assay; format: cell-based, human; conditions: Homo sapiens, HeLa, 72 h; read-out: Cytotoxicity (as of %Control) IC50 value, Hela cervix malignancy
Method: as §3

PC3 prostate malignancy = assay: SRB antiproliferative assay; format: cell-based, human; conditions: Homo sapiens, 72 h; read-out: Cytotoxicity (as of %Control) IC50 value, PC3 prostate malignancy
Method: as §3

OC(Cn1cncn1)(Cn1cncn1)c1ccc(F)cc1F [Fluconazole, reference compound]
MIC [1]: 3.9 µg/mL (≈ 12.7 µM)

O=C(O)c1cn(C2CC2)c2cc(N3CCNCC3)c(F)cc2c1=O [Ciprofloxacin, reference compound]
MIC [2]: 0.097 µg/mL (≈ 0.293 µM) | MIC [3]: 0.0008 µg/mL (≈ 0.00241 µM)

COc1ccccc1/C=N/NC(=S)N/N=C/c1ccccc1OC [L1, 1,5-bis(2-methoxyanisaldehyde) thiocarbohydrazine]
IC50 [4]: > 200 µM | IC50 (U87 glioblastoma): 29.5 ± 0.2 µM | IC50 [5]: 36.1 ± 1.9 µM | IC50 (A375 skin melanoma): 41.7 ± 0.7 µM | IC50 [6]: 42.1 ± 5.7 µM | IC50 [7]: 23.2 ± 0.6 µM | IC50 [8]: < 3.12 µM | IC50 (RAW 264.7 macrophages): > 200 µM | IC50 [9]: 29.2 ± 3.8 µM | IC50 (MCF7 mammary malignancy): 52.4 ± 5.25 µM | IC50 (A549 lung malignancy): 44.8 ± 1.8 µM | IC50 [10]: 66.8 ± 0.2 µM | IC50 [11]: 46.4 ± 1.11 µM | IC50 (T47D mammary malignancy): 21.8 ± 1.2 µM | IC50 [12]: 72.9 ± 3.4 µM | IC50 [13]: 5.35 ± 0.25 µM | IC50 (Hela cervix malignancy): 44.8 ± 3.8 µM | IC50 (PC3 prostate malignancy): 145 ± 1.5 µM | MIC [1]: 31.3 µg/mL (≈ 91.4 µM) | MIC [2]: 15.6 µg/mL (≈ 45.6 µM) | MIC [3]: 31.3 µg/mL (≈ 91.4 µM)
